PMC10958501, “4-Oxypiperidine Ethers as Multiple Targeting Ligands at Histamine H3 Receptors and Cholinesterases” (ACS Chemical Neuroscience, 2024)

Tests used:
eeAChE = biological target: T1, eeAChE (Electrophorus electricus, UniProt O42275); assay: biochemical
T1 construct: purchased Sigma–Aldrich (Steinheim, Germany)

gpH3R = biological target: T2, gpH3R (Cavia porcellus, UniProt Q9JI35); assay: Ex vivo gpH3R screening on isolated guinea pig ileum electrically stimulated to contraction
T2 construct: isolated guinea pig ileum electrically stimulated to contraction; from tissue; host or cells: distal ileum of male guinea pigs
T2 sequence (Q9JI35 whole entry): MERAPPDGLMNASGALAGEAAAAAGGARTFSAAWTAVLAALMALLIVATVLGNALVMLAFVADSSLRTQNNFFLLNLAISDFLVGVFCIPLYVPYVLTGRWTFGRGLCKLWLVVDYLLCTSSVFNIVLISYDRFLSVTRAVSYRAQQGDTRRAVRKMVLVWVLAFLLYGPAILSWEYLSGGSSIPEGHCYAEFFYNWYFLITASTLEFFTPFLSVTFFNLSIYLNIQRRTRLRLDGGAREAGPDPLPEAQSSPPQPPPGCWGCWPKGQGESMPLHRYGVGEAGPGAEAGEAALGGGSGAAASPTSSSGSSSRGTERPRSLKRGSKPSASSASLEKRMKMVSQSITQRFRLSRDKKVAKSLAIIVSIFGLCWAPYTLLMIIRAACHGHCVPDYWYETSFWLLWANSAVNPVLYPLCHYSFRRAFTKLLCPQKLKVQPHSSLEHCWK
Procedure: All newly synthesized compounds were evaluated ex vivo as H3R antagonists/inverse agonists on guinea pig ileum (gpH3R) stimulated electrically for contraction.[47]
The compounds were tested against H3R by an ex vivo assay using isolated guinea pig ileum electrically stimulated to contraction, according to Vollinga et al.[47] The pA2-values were calculated according to Arunlakshana and Schild.[59] The radioligand-displacement assay was performed in membrane fractions of HEK-293 cells stably expressing hH3R. Cell cultivation and membrane preparation were performed according to Kottke et al.[48] The Ki values were calculated from the IC50 values using the Cheng–Prusoff equation.[60] The statistical calculations were performed on −log(Ki). […] The inhibitory activities toward AChE and BuChE of novel ADS compounds were assessed in a spectrophotometric Ellman’s assay using electric eel AChE (eeAChE) and equine BuChE (eqBuChE).[57] Intracellular cAMP accumulation was measured with a homogeneous TR-FRET immunoassay using the LANCE Ultra cAMP kit (PerkinElmer) and HEK293 cells stably expressing the human histamine H3 receptor.[61] A more detailed description of the biological methods is presented in the Supporting Information.
3. Pharmacological assay results.
3.1. Ex vivo assay for histamine H 3R receptor antagonists on guinea pig ileum.
Male guinea pigs, weighing 300-400 g were euthanized by a blow to the neck. Following this, a 20-30 cm length of the distal ileum, apart from the terminal 5 cm was rapidly removed and […]
USA) (1·10 -6 mol/L). The intraluminal content was rinsed and the isolated intestine was cut into 1.5-2 cm segments. The preparations were mounted between two platinum electrodes […]
and indomethacin (3·10 -7 mol/L).
CO2 mixture and maintained at 37 °C under a constant load of 1.0 g (Hugo Sachs Hebel-Messvorsatz (Tl-2)/HF-modem; Hugo Sachs Elektronik, Hugstetten, Germany) connected to a pen recorder (Kipp & Zonen BD41, Delft, Holland). During an equilibration period of 60 min, the Krebs buffer was changed every 10 min. The preparations were then continuously stimulated at 15-20 V at a frequency of 0.1 Hz for a duration of 0.5 ms, with rectangular-wave electrical pulses (Grass Stimulator S-88; Grass Instruments Co., Quincy, Massachusetts, […]
USA). […] Five minutes before (R)-(−)-α- […]
methylhistamine (RAMH) (Toronto Research Chemicals Inc., North York, Canada), administration, pyrilamine (Sigma-Aldrich, St. Louis, MO, USA) (1·10-5 mol/L concentration in organ bath) was added. The first cumulative concentration-response curve was determined […]
second to fourth curve was measured against increasing antagonist concentration (incubation time 20 min). The pA2-values were calculated according to Arunlakshana and Schild 5.
Statistical analysis was carried out with the Student’s t-test. In all tests, a p<0.05 was […]
considered statistically significant. The pA2 values were compared with the affinity of thioperamide (Sigma-Aldrich, St. Louis, MO, USA). […]

T1 sequence (O42275 24-633): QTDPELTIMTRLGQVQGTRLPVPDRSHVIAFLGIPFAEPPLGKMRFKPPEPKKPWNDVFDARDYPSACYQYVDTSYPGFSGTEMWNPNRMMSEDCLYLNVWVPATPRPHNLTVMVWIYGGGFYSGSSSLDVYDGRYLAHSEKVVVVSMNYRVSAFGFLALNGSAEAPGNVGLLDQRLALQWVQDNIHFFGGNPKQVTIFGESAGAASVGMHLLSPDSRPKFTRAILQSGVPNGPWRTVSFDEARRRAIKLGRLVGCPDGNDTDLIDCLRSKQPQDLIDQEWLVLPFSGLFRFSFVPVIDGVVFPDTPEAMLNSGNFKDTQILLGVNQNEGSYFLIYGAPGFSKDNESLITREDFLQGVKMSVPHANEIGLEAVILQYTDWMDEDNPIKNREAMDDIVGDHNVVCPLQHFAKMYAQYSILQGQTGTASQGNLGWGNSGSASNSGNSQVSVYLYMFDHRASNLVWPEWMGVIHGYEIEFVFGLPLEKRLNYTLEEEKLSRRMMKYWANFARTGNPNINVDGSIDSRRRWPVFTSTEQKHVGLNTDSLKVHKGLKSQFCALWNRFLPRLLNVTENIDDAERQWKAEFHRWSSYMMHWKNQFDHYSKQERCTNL

With `CCCN(C)Cc1ccc2cc(COC3CCN(Cc4ccccc4)CC3)ccc2c1` [ADS031, N-((6-(((1-Benzylpiperidin-4-yl)oxy)methyl)naphthalen-2-yl)methyl)-N-methylpropan-1-amine] the inhibition at 10 µM (eeAChE; read-out: eeAChE % inh. (10μM) ± SD) was 84.2 ± 0.6%, the IC50 (eeAChE; read-out: eeAChE IC50 (μM) ± sem) was 1.54 ± 0.038 µM and the Kb (gpH3R) was 0.0288 µM.
